# Assay results reported in patent US10167262B2, “Herbicidal substituted 3-arylpyrazoles” (FMC CORPORATION, priority 2014, dated 2019).
# Legend:
# Assay in all cases: Test E pre-/postemergence greenhouse test, plant response rating 0-100
# Type in all cases: in vivo
# Settings in all cases: Postemergence, scale 0 to 100
# [1] = test system: corn (Zea mays)
# Procedure, shortened: (§1)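 Visual control score, 0–100 relative to untreated plants, recorded 14–21 days after spraying. Treatments: preemergence on silt loam seedbeds and postemergence at the 1- to 4-leaf stage, with compound in surfactant-containing solvent.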
# [2] = test system: soybean (Glycine max)
# Procedure, shortened: as §1
# [3] = test system: palmer pigweed (Amaranthus palmeri)
# Procedure, shortened: as §1
# [4] = test system: sandbur (southern sandbur, Cenchrus echinatus)
# Procedure, shortened: as §1
# [5] = test system: Brazilian crabgrass (Digitaria horizontalis)
# Procedure, shortened: as §1
# [6] = test system: waterhemp (common waterhemp, Amaranthus rudis)
# Procedure, shortened: as §1
# [7] = test system: wild poinsettia (Euphorbia heterophylla)
# Procedure, shortened: as §1
# [8] = test system: barnyardgrass (Echinochloa crus-galli)
# Procedure, shortened: as §1
# [9] = test system: fall panicum (Panicum dichotomiflorum)
# Procedure, shortened: as §1
# [10] = test system: arrowleaf sida (Sida rhombifolia)
# Procedure, shortened: as §1
smiles,measurement,setting,value
C=CCn1cc(C(=O)c2ccccc2)c(-c2cc(Cl)cc(Cl)c2)n1 [Compound 60],"Plant response rating, Corn",[1]; 16 g ai/ha,0
same,"Plant response rating, Corn",[1]; 31 g ai/ha,0
same,"Plant response rating, Corn",[1]; 62 g ai/ha,0
same,"Plant response rating, Corn",[1]; 125 g ai/ha,0
same,"Plant response rating, Corn",[1]; 250 g ai/ha,0
same,"Plant response rating, Soybean",[2]; 31 g ai/ha,0
same,"Plant response rating, Soybean",[2]; 62 g ai/ha,0
same,"Plant response rating, Soybean",[2]; 125 g ai/ha,0
same,"Plant response rating, Soybean",[2]; 250 g ai/ha,0
same,"Plant response rating, Pigweed, Palmer",[3]; 62 g ai/ha,30
same,"Plant response rating, Pigweed, Palmer",[3]; 125 g ai/ha,35
same,"Plant response rating, Pigweed, Palmer",[3]; 250 g ai/ha,35
same,"Plant response rating, Sandbur",[4]; 31 g ai/ha,0
same,"Plant response rating, Sandbur",[4]; 62 g ai/ha,0
same,"Plant response rating, Sandbur",[4]; 125 g ai/ha,0
same,"Plant response rating, Sandbur",[4]; 250 g ai/ha,0
same,"Plant response rating, Crabgrass, Brazil",[5]; 16 g ai/ha,0
same,"Plant response rating, Crabgrass, Brazil",[5]; 31 g ai/ha,0
same,"Plant response rating, Crabgrass, Brazil",[5]; 62 g ai/ha,0
same,"Plant response rating, Crabgrass, Brazil",[5]; 125 g ai/ha,0
same,"Plant response rating, Crabgrass, Brazil",[5]; 250 g ai/ha,0
same,"Plant response rating, Waterhemp",[6]; 31 g ai/ha,20
same,"Plant response rating, Waterhemp",[6]; 62 g ai/ha,25
same,"Plant response rating, Waterhemp",[6]; 125 g ai/ha,25
same,"Plant response rating, Waterhemp",[6]; 250 g ai/ha,30
same,"Plant response rating, Poinsettia, Wild",[7]; 31 g ai/ha,0
same,"Plant response rating, Poinsettia, Wild",[7]; 62 g ai/ha,0
same,"Plant response rating, Poinsettia, Wild",[7]; 125 g ai/ha,0
same,"Plant response rating, Poinsettia, Wild",[7]; 250 g ai/ha,0
same,"Plant response rating, Barnyardgrass",[8]; 16 g ai/ha,0
same,"Plant response rating, Barnyardgrass",[8]; 31 g ai/ha,0
same,"Plant response rating, Barnyardgrass",[8]; 62 g ai/ha,0
same,"Plant response rating, Barnyardgrass",[8]; 125 g ai/ha,0
same,"Plant response rating, Barnyardgrass",[8]; 250 g ai/ha,0
same,"Plant response rating, Panicum, Fall",[9]; 31 g ai/ha,0
same,"Plant response rating, Panicum, Fall",[9]; 62 g ai/ha,0
same,"Plant response rating, Panicum, Fall",[9]; 125 g ai/ha,0
same,"Plant response rating, Panicum, Fall",[9]; 250 g ai/ha,0
same,"Plant response rating, Arrowleaf Sida",[10]; 16 g ai/ha,25
same,"Plant response rating, Arrowleaf Sida",[10]; 31 g ai/ha,35
same,"Plant response rating, Arrowleaf Sida",[10]; 62 g ai/ha,35
same,"Plant response rating, Arrowleaf Sida",[10]; 125 g ai/ha,45
same,"Plant response rating, Arrowleaf Sida",[10]; 250 g ai/ha,45
